Where two headings read alike, the source gives them in different places. Peptide text beside a SMILES is read from it.
Assays:
P. aeruginosa MDR 522/17 = assay: microbe, parasite or virus in culture; format: cell-based, Pseudomonas aeruginosa
Protocol: In this regard the test plates were preincubated for 1 h at 37 °C with 0.1% bovine serum albumin (BSA) in distilled water before use. Bacteria were grown overnight at 37 °C with shaking in 2.1% Müller–Hinton broth (MHB), and then a small aliquot was transferred into the fresh portion of the same medium for another 2–3 h on the day of the experiment to provide us with the log phase bacterial suspension. Concentration of bacterial cells in suspension was evaluated based on absorbance at 620 nm and diluted down to 1 × 10^6 CFU/mL with MHB. Equal volumes of the prepared bacterial suspension in MHB and two-fold serial dilutions of the antimicrobials in 10 mM sodium phosphate (Na-P) buffer (pH 7.4) with 0.1% BSA were mixed and incubated overnight at 37 °C. The lowest concentration where no bacterial growth was observed the next day under visual examination was considered the minimal inhibitory concentration. The test was repeated at least three times, and the final MIC value was established as a median result. Each experiment was conducted in triplicates. Terasaki microplates (10 µL end volume, V-shaped bottom; Sarstedt, Nümbrecht, Germany) were used.

[1] = system: normal human dermal fibroblasts; assay: MTT test and/or direct cell count by light microscopy; conditions: for FECI, toxicity toward fibroblasts: assessed from the ½+½ and ¼+¼ MEC combinations
From the text: Potential cytotoxic effects of the test substances and their combinations toward human dermal fibroblasts were observed using a MTT dye [3-(4,5-dimethylthiazol-2-yl)-2,5-diphenyltetrazolium bromide]-based test first proposed by Mosmann. MTT basically functions on the same principle as resazurin: it is reduced in metabolically active cells to the product named formazan, which differs from MTT by its properties. While MTT is yellow, formazan is blue and water-insoluble. Normal human fibroblasts initially obtained from the Pokrovsky Stem Cell Bank (Saint Petersburg, Russia) were cultured at 37 °C and 5% CO2 in DMEM medium supplemented with 10% fetal bovine serum, glutamine, and Pen-Strep. The day before, experiment cells were detached from the culture flasks using Trypsin-Versene reagent, collected into a sterile 15 mL tube, centrifuged for 10 min at 300× g to discard the previous medium, and resuspended in serum-, glutamine-, and antibiotic-free DMEM. Cells were counted using a hemocytometer; their concentration was adjusted, and they were distributed at 10,000–15,000 cells per well in 90 µL in a 96-well sterile treated flat-bottom plate and left at 37 °C and 5% CO2 overnight to properly adhere. The following day, their well-being was visually checked using an inverted light microscope, and the wells were supplied with 10 µL of the test substances or their combinations in DMEM in 10 times the final desired concentrations. Experimental samples were made in triplicates. […] At least six repeats of each type of the control samples were made. Test plates were incubated at 37 °C and 5% CO2 overnight, and 10 µL of the 5 mg/mL MTT in PBS were introduced into each well the next morning. After another 4 h of incubation at the same conditions, formed formazan crystals were dissolved by adding 110 µL of isopropanol containing 0.04 M HCl (the latter is used to “switch” phenol red pH indicator in DMEM from red to yellow). Then, each sample was thoroughly mixed by repetitive pipetting, and formazan concentration was spectrophotometrically evaluated measuring OD at 540 nm with subtraction of the background at 690 nm.
We resorted to the direct cell count in case the MTT test was not applicable or required verification of some sort. This idea was borrowed from the crystal violet assay for determining viability of cultured cells and is based on the fact that, once dead, adherent cells detach from the surface. Since we were not aiming to analyze a large number of samples in this manner, we simply skipped the staining step of the crystal violet assay, which is also slightly difficult and brings a risk of detaching cells during washing. We proceeded with the same protocol as for the MTT test down to the step of adding MTT dye. Then, instead, we used an inverted light microscope (magnification ×500) to calculate the number of attached cells in 10 fields of view in each experimental well of interest and compared it with the count for the 100% viability control wells. The exact effect was evaluated as viable cells (%) = mean number of adhered cells in a sample / mean number of adhered cells in 100% viability control × 100%.
While analyzing toxicity toward eukaryotic cells, components were mixed in concentrations of ½ MEC (AMP) + ½ MEC (AS) (that can provide the fractional index = 1, denoting additivity, if found effective) and ¼ MEC (AMP) + ¼ MEC (AS) (that can provide the fractional index = 0.5, denoting synergy, if found effective).
Cytotoxic effects of individual substances and their combinations were also evaluated against cultured normal human dermal fibroblasts. We used MTT tests and/or light microscopy for the direct cell count.

human erythrocytes = format: cell-based
Protocol: Hemolytic properties of the test substances and their combinations were assessed as previously described. Whole human blood was collected from healthy donors by venipuncture into sterile EDTA-covered vacuum tubes, diluted 10 times with ice-cold phosphate-buffered saline (PBS) containing 4mM EDTA for the start, and then washed out twice with still ice-cold but anticoagulant-free PBS by a 10 min long centrifugation at 300× g and 4 °C to remove plasma and anticoagulant altogether. […] Samples were incubated for 30 min at 37 °C and then supplied with 90 µL of ice-cold PBS to stop further hemolysis. Remaining RBCs or their debris were precipitated by 4 min of centrifugation at 10,000× g and room temperature, and 100 µL of the supernatants was transferred to a 96-well clear flat-bottom test plate to spectrophotometrically detect hemoglobin released from the damaged RBCs. OD was measured at 540 nm—one of the hemoglobin absorbance maxima. The samples with 6 µL of pure PBS (with no potentially hemolytic agents) were used as a 0% lysis reference point. Experimental samples were compared with 0% lysis control by the Mann–Whitney U-test (p < 0.05) to identify statistically significant hemolytic action. In case the exact level of effect was of interest, the samples with 6 µL of 5% v/v Triton X-100 in PBS were also prepared to additionally obtain a 100% lysis reference point and calculate the percentage of hemolysis in test samples as hemolysis (%) = (ODsample − OD0% lysis)/(OD100% lysis − OD0% lysis) × 100%. At least three independent repeats were performed.
The absence “–” or presence “+” of a statistically significant difference compared with the intact control once exposed to the action of combinations of AMPs and antiseptics in concentrations equal to ½ or ¼ of their individual MECH was evaluated in a series of three independent experiments.

[2] = antiseptics and surfactants, serum-free DMEM, overnight, median of 3 independent experiments, prontosan as polyhexanide, etidronic acid primarily by direct cell count
[3] = antiseptics and surfactants, MHB, overnight 37 °C, median of 3–4 independent experiments, prontosan as polyhexanide
[4] = antiseptics and surfactants, 2.5% v/v RBC in PBS, 30 min, 37 °C, median of 3 independent experiments, prontosan as polyhexanide

Compound: CC[C@H](C)[C@H](NC(=O)[C@H](CCCNC(=N)N)NC(=O)[C@@H](NC(=O)[C@@H]1CCCN1C(=O)[C@@H]1CCCN1C(=O)[C@H](CCCNC(=N)N)NC(=O)[C@H](CCCNC(=N)N)NC(=O)[C@H](Cc1ccccc1)NC(=O)[C@@H]1CCCN1C(=O)[C@H](CC(C)C)NC(=O)[C@H](CCCNC(=N)N)NC(=O)[C@H](Cc1ccccc1)NC(=O)[C@@H](N)CCCNC(=N)N)[C@@H](C)CC)C(=O)N[C@@H](Cc1c[nH]cn1)C(=O)N1CCC[C@H]1C(=O)N1CCC[C@H]1C(=O)N1CCC[C@H]1C(=O)N[C@@H](Cc1ccccc1)C(=O)N[C@@H](Cc1ccc(O)cc1)C(=O)N1CCC[C@H]1C(=O)N1CCC[C@H]1C(=O)N[C@@H](Cc1ccccc1)C(=O)N[C@@H](CCCNC(=N)N)C(=O)N[C@@H](CCCNC(=N)N)C(=O)N[C@@H](Cc1ccccc1)C(=O)N[C@@H](CC(C)C)C(=O)O [ChBac3.4] (H-RFRLPFRRPPIRIHPPPFYPPFRRFL-OH; N-terminus assumed)
- MIC (P. aeruginosa MDR 522/17; MDR 522/17, 1 h): 6.2 µM
- MECF of cytotoxic action toward normal human dermal fibroblasts [1]: 40 µM

Compound: CC(O)(P(=O)(O)O)P(=O)(O)O [Etidronic acid]
- MIC (P. aeruginosa MDR 522/17; Pseudomonas aeruginosa, MDR522/17, antiseptics and surfactants, MHB, overnight 37 °C, median of 3–4 independent experiments, prontosan as polyhexanide, read-out: MIC): 25 mg/mL
- MECF [1]: less than 2.5 mg/mL
- MECF of cytotoxic action toward normal human dermal fibroblasts [1, 2]: <2500 µg/mL
- Cytotoxic effect toward human dermal fibroblasts ([1]; at 2.5 mg/mL): higher than 50%
- MECH of hemolysis of human erythrocytes (human erythrocytes): 5000 µg/mL

Compound: CC(C)C[C@H](NC(=O)[C@H](CCCNC(=N)N)NC(=O)CNC(=O)CNC(=O)[C@@H](N)CCCNC(=N)N)C(=O)N[C@H]1CSSC[C@@H](C(=O)N[C@H](C(=O)NCC(=O)N[C@@H](CCCNC(=N)N)C(N)=O)C(C)C)NC(=O)[C@H](C(C)C)NC(=O)[C@@H]2CSSC[C@H](NC(=O)[C@H](Cc3ccc(O)cc3)NC1=O)C(=O)N[C@@H](CCCNC(=N)N)C(=O)N[C@@H](CCCNC(=N)N)C(=O)N[C@@H](CCCNC(=N)N)C(=O)N[C@@H](Cc1ccccc1)C(=O)N2 [PG-1, protegrin 1]
- MIC (P. aeruginosa MDR 522/17; MDR 522/17, 1 h): 6.2 µM
- FECI, toxicity toward fibroblasts ([1]; B = cocamidopropyl betaine): 1.0
- Toxicity of (¼ MEC A + ¼ MEC B) toward human dermal fibroblasts ([1]; B = cocamidopropyl betaine, experiment 1 of 3 (1st symbol)): +
- Toxicity of (¼ MEC A + ¼ MEC B) toward human dermal fibroblasts ([1]; B = cocamidopropyl betaine, experiment 2 of 3 (2nd symbol)): −
- Toxicity of (¼ MEC A + ¼ MEC B) toward human dermal fibroblasts ([1]; B = cocamidopropyl betaine, experiment 3 of 3 (3rd symbol)): −
- Toxicity of (¼ MEC A + ¼ MEC B) toward human dermal fibroblasts ([1]; B = cocamidopropyl betaine, overall result of 3 independent experiments (square brackets)): −
- FECI, toxicity toward fibroblasts ([1]; B = dioxydin): >1.0
- FECI, toxicity toward fibroblasts ([1]; B = poviargolum): 1.0
- Toxicity of (¼ MEC A + ¼ MEC B) toward human dermal fibroblasts ([1]; B = poviargolum, experiment 1 of 3 (1st symbol)): +
- Toxicity of (¼ MEC A + ¼ MEC B) toward human dermal fibroblasts ([1]; B = poviargolum, experiment 2 of 3 (2nd symbol)): −
- Toxicity of (¼ MEC A + ¼ MEC B) toward human dermal fibroblasts ([1]; B = poviargolum, experiment 3 of 3 (3rd symbol)): −
- Toxicity of (¼ MEC A + ¼ MEC B) toward human dermal fibroblasts ([1]; B = poviargolum, overall result of 3 independent experiments (square brackets)): −
- FECI, toxicity toward fibroblasts ([1]; B = prontosan): 1.0
- Magnitude of toxic effect toward human dermal fibroblasts ([1]; at 20 μM): higher than 50%
- MECH of hemolysis of human erythrocytes (human erythrocytes): 0.5 µM

Compound: [O-][n+]1c(CO)c(CO)[n+]([O-])c2ccccc21 [Dioxydin]
- MIC (P. aeruginosa MDR 522/17; [3]): 0.125 mg/mL
- MECF [1]: 0.5 mg/mL
- MECF of cytotoxic action toward normal human dermal fibroblasts [1, 2]: 500 µg/mL
- MECH (human erythrocytes): higher than 0.5 mg/mL
- MECH of hemolysis of human erythrocytes (human erythrocytes; [4]): 500 µg/mL

Compound: Cocamidopropyl betaine
- MIC (P. aeruginosa MDR 522/17; [3]): >50,000 µg/mL
- MECF of cytotoxic action toward normal human dermal fibroblasts [1, 2]: 12.5 µg/mL
- MECH of hemolysis of human erythrocytes (human erythrocytes; [4]): 1 µg/mL
